# System: S. Typhi PhoP-promoter GFP reporter, fluorescence, 4 h
# Assay: modified counter assay using GFP fluorescence, PhoP regulon inhibitor project, dose response (AID 1985)
row,Compound,IC50
1,C#CCOCCOCCOCCNc1nc(N2CCN(C(=O)[C@H](CCCCN)n3cc([C@@H](N)CC(C)C)nn3)CC2)nc(N2CCN(C(=O)[C@H](Cc3cc4ccccc4[nH]3)n3cc([C@@H](N)Cc4ccc(O)cc4)nn3)CC2)n1,54.5 µM
2,O=C(N/N=C/c1cc(O)ccc1Br)c1cccnc1,33.2 µM
3,Cn1c(SCC(=O)N/N=C/c2ccc([N+](=O)[O-])s2)nnc1-c1ccc(Cl)cc1,38.9 µM
4,O=C(C[n+]1cc(-c2ccc(Cl)c(Cl)c2)n2c1CCC2)N1c2ccccc2Sc2ccccc21,78.2 µM
5,Oc1c(C(Nc2ccccn2)c2cccnc2)cc(Cl)c2cccnc12 (configuration not stated),33.9 µM
6,COc1ccc(CNCCC(c2ccccc2)c2ccc3c(c2)OCO3)cc1 (configuration not stated),149 µM
7,CC(=O)Oc1ccccc1C(=O)Nc1ncc([N+](=O)[O-])s1,149 µM
8,CC[C@@H](C)[C@H](CN[C@H](CNC)C(C)C)NC[C@@H](C)c1ccc(CC(C)C)cc1,61 µM
9,CCCNC(=O)c1cn(CC)c2cc(N3CCN(C)CC3)c(F)cc2c1=O,28 µM
10,CN1CCN(C2Cc3ccc(Cl)cc3Sc3ccc(F)cc32)CC1 (configuration not stated),39.6 µM
11,CCCOc1ccc(S(=O)(=O)n2cc(F)c(=O)[nH]c2=O)cc1,42.2 µM
12,COc1ccc(OCC(O)CNc2ccc(Br)cc2)cc1 (configuration not stated),3.55 µM
13,O=C(N/N=C/c1ccc([N+](=O)[O-])o1)C1CCCC1,37.7 µM
14,CCOc1ccc(-c2cc(C)[n+](CCN(CC)CC)c(-c3ccc(OCC)cc3)c2)cc1,105 µM
15,CCn1cc(C(=O)NCc2ccc3c(c2)OCO3)c(=O)c2cc(F)c(N3CCN(C(=O)c4ccco4)CC3)cc21,107 µM
16,CCn1cc(C(=O)O)c(=O)c2cc(F)c(N3CCN(C(=S)Nc4ccc(OC)cc4)CC3)cc21,5.64 µM
17,O=C(N/N=C/c1ccc([N+](=O)[O-])o1)c1ccc(O)cc1,18.3 µM
18,Cc1ccc(NC(=O)c2ccccc2)s1,91.9 µM
19,O=c1[nH]cc(N=Cc2cc([N+](=O)[O-])ccc2O)c(=O)[nH]1,39.7 µM
20,CN1CCN(CCCN2c3ccccc3Sc3ccc(C(F)(F)F)cc32)CC1,124 µM
21,O=C(/C=C/c1ccccc1)c1ccc(NC2=NCCCS2)cc1,117 µM
22,COc1c(N2CCN[C@H](C)C2)c(F)cc2c(=O)c(C(=O)O)cn(C3CC3)c12,< 0.23 µM

row,Compound,IC50
1,O=C(Cc1ccc([N+](=O)[O-])cc1)N/N=C/c1ccc([N+](=O)[O-])o1,13.1 µM
2,O=C(C[n+]1ccc(-c2ccccc2)cc1)Nc1ccc([N+](=O)[O-])cc1,27.3 µM
3,CN1CCN(Cc2cc(COCc3ccccc3)c3cccnc3c2O)CC1,62.9 µM
4,CN(C)CCCN(C(=O)COc1ccccc1)c1nc2ccc(Cl)cc2s1,141 µM
5,Clc1ccc(OCCCNCc2ccccc2)c(Br)c1,43.8 µM
6,O=C(Nc1nnc(-c2ccccn2)o1)c1cccc(Cl)c1,107 µM
7,O=C(N/N=C/c1cc(Cl)ccc1O)c1cccnc1,28.2 µM
8,CCOC(=O)c1c(-c2ccc(-c3ccccc3)cc2)csc1NC(=O)CNCCN(C)C,82.2 µM
9,O=Nc1c(O)c2ccccc2c2ccccc12,24.6 µM
10,Cc1cccc(C(=O)NCCC(=O)Nc2ccc(F)c([N+](=O)[O-])c2)c1,144 µM
11,CN(Cc1ccccc1O)CC1CCCN(CCc2ccc(Cl)cc2)C1 (configuration not stated),51.6 µM
12,O=C(Oc1c(Cl)cc(Cl)c2cccnc12)c1cccc([N+](=O)[O-])c1,5.09 µM
13,O=C(N/N=C/c1cc(Cl)cc(Cl)c1O)c1ccncc1,20.2 µM
14,COc1ccc(N2CC(C(=O)N/N=C/c3cc([N+](=O)[O-])ccc3O)CC2=O)cc1 (configuration not stated),81.2 µM
15,C(=N\Nc1ccccn1)/c1cccnc1,37.5 µM
16,CCC(C)NC(=O)c1cn(CC)c2cc(N3CCN(C)CC3)c(F)cc2c1=O (configuration not stated),38.4 µM
17,COc1cccc(C=NCC(C)N=Cc2cccc(OC)c2O)c1O (configuration not stated),74.1 µM
18,C#CCOCCOCCOCCNc1nc(N2CCN(C(=O)CCCCCCCCCCNC(=O)[C@H](CCCCN)n3cc(C)nn3)CC2)nc(N2CCN(C(=O)CCCCCCCCCCNC(=O)[C@H](CCCN=C(N)N)n3cc(C[C@@H](C)CC)nn3)CC2)n1,31.9 µM
19,Cc1ccc(C(=O)N/N=C\c2ccc([N+](=O)[O-])s2)cn1,20 µM
20,CCCCn1c(NS(=O)(=O)c2ccccc2)c(S(=O)(=O)c2ccc(C)cc2)c2nc3ccccc3nc21,114 µM
21,Clc1c(OCCCn2ccnc2)ccc2ccccc12,149 µM
22,O=C(Nc1ccc(Cc2ccncc2)cc1)c1ccc([N+](=O)[O-])o1,39.5 µM

row,Compound,IC50
1,O=C(N/N=C/c1cc(Br)ccc1O)c1ccccc1Cl,82.8 µM
2,CCCC(=O)NC(c1ccco1)c1cc([N+](=O)[O-])c2cccnc2c1O (configuration not stated),8.65 µM
3,Oc1c(Br)cc(Br)cc1C=NCc1ccc(F)cc1,54.4 µM
4,CCn1cc(C(=O)O)c(=O)c2cc(F)c(N3CCN(C(=S)NC(=O)c4ccccc4F)CC3)cc21,62.8 µM
5,O=C(Cc1ccccc1)N/N=C/c1cc(Br)cc(Cl)c1O,44.9 µM
6,COc1ccc(Cc2nnc(N/N=C/c3ccc(O)cc3)[nH]c2=O)cc1OC,54.8 µM
7,CCCCCCCCCCOC(=O)Cn1c(COc2cccc(C)c2)[n+](C)c2ccccc21,15.9 µM
8,COc1ccc(N2C(=O)CC(N3CC=C(c4ccccc4)CC3)C2=O)cc1 (configuration not stated),82.4 µM
9,Cc1ccc(OCC(O)Cn2c(=N)n(CCN3CCCCC3)c3ccccc32)cc1 (configuration not stated),67.9 µM
10,COc1cc(CNCCc2ccccc2)cc(Cl)c1OCc1ccccc1,78.9 µM
11,Nc1nc2ccccc2n1CCOc1ccccc1Cl,63.1 µM
12,CC12CN3CC(C)(CN(C1)C3c1ccc(Br)cc1O)C2 (configuration not stated),133 µM
13,O=C(CNCCC1=CCCCC1)Nc1ccc(N2CCCCCC2)cc1,54.2 µM
14,O=C1NCCN1c1ncc([N+](=O)[O-])s1,15.9 µM
15,c1ccc(Nc2nc(NCc3ccco3)c3ccccc3n2)cc1,24 µM
16,CN(C)CC/C=C1\c2ccc(F)cc2Sc2cc(F)c(Cl)cc21,36.7 µM
17,COc1cccc(CNCCc2c[nH]c3ccccc23)c1OCc1ccccc1,150 µM
18,O=C(c1cccs1)c1no[n+]([O-])c1C(=O)c1cccs1,14 µM
19,N=c1c2c(n(Cc3ccc(Cl)cc3Cl)c3c1CCC3)CCCC2,80.7 µM
20,O=C1c2ccccc2NC(c2ccc(-c3ccc(Br)cc3)o2)N1O (configuration not stated),81.1 µM
21,COc1cc(/C=C/[N+](=O)[O-])ccc1O,53.4 µM
22,CCN1/C(=C/C=C/C=C/c2sc3ccccc3[n+]2CC)Sc2ccccc21,30.9 µM

row,Compound,IC50
1,CN1CCN(c2c(F)cc3c(=O)c(C(=O)O)cn4c3c2OCN4C)CC1,< 0.23 µM
2,C#CCOCCOCCOCCNc1nc(N2CCN(C(=O)CCCCCCCCCCNC(=O)[C@H](CCCCN)n3cc(C)nn3)CC2)nc(N2CCN(C(=O)CCCCCCCCCCNC(=O)[C@@H]([C@H](C)CC)n3cc(CCCCCN)nn3)CC2)n1,79 µM
3,CC[N+](C)(CC)CCC[n+]1c(-c2ccccc2)c2cc(N)ccc2c2ccc(N)cc21,53.4 µM
4,N=c1n(CCN2CCCCC2)c2ccccc2n1CC(O)COc1ccccc1 (configuration not stated),90.2 µM
5,Cc1cc(C)c(OCCCCNCc2ccccc2)c(Cl)c1,113 µM
6,c1cc2c(cc1C1CCCCC1)c1c3n2CCCNC3CCC1 (configuration not stated),39.9 µM
7,COC12C(COC(N)=O)C3=C(C(=O)C(C)=C(N)C3=O)N1CC1C2N1C (configuration not stated),31.2 µM
8,CCc1cccc2c1Sc1ccccc1CC2N1CCNCC1 (configuration not stated),44.4 µM
9,CCC(=O)N1CCN(c2cc3c(cc2F)c(=O)c(C(=O)O)cn3CC)CC1,126 µM
10,O=[N+]([O-])c1ccc(/C=[N+](\[O-])CCO)o1,33.6 µM
11,O=C(NC(CO)Cc1ccc([N+](=O)[O-])cc1)C(Cl)Cl (configuration not stated),4.59 µM
12,Cc1ccc(NC(=O)C(=O)NNC(=O)c2cccs2)cc1,13.2 µM
13,OCCCNc1c2ccccc2nc2ccccc12,136 µM
14,COc1ccc(C(=O)NC(=S)NNC(=O)c2cccc(C)c2)cc1,46.8 µM
15,N#C/C(N=Nc1ccccc1O)=N\Nc1ccccc1O,9.47 µM
16,Nc1ncn([C@@H]2O[C@H](CO)[C@@H](O)[C@H]2O)c(=O)n1,11.2 µM
17,NC1=NC2(CCCCC2)N=C(Nc2ccc(Br)cc2)N1,28.8 µM
18,O=C(N[C@H](CO)[C@H](O)c1ccc([N+](=O)[O-])cc1)C(Cl)Cl,2.71 µM
19,CCCCCC(=O)NC(=S)NNC(=O)CC,84.2 µM
20,CC(=O)Nc1cccc(NC(=O)Nc2ccc(F)cc2F)c1,114 µM
21,CCn1cc(C(=O)NCCN(C)C)c(=O)c2cc(F)c(N3CCN(C)CC3)cc21,34 µM
22,NC(N)=N/N=C/c1ccc(OCc2ccc(Cl)cc2Cl)cc1,16.9 µM

row,Compound,IC50
1,Oc1c(CN2CCCCC2)cc(Br)c2cccnc12,19.8 µM
2,Cc1[nH]c2ccc(OC(F)(F)F)cc2c1CCNCc1ccc(Cl)cc1,36.3 µM
3,CC[C@H]1OC(=O)[C@H](C)[C@@H](O[C@H]2C[C@@](C)(OC)[C@@H](O)[C@H](C)O2)[C@H](C)[C@@H](O[C@@H]2O[C@H](C)C[C@H](N(C)C)[C@H]2O)[C@](C)(OC)C[C@@H](C)C(=O)[C@H](C)[C@@H](O)[C@]1(C)O,125 µM
4,O=C(CSc1nnc(-c2cccnc2)n1Cc1ccco1)c1ccc2ccccc2c1,< 0.23 µM
5,O=C(Nc1nnc(-c2ccco2)o1)c1cccc(Cl)c1,40 µM
6,CO[C@H]1C=CO[C@@]2(C)Oc3c(C)c(O)c4c(O)c(c5c(c4c3C2=O)NC2(CCN(CC(C)C)CC2)N=5)=NC(=O)C(C)=CC=C[C@H](C)[C@H](O)[C@@H](C)[C@@H](O)[C@@H](C)[C@H](OC(C)=O)[C@@H]1C,4.08 µM
7,Cc1cc(C(C)(C)CC(C)(C)C)ccc1OCCOCC[N+](C)(C)Cc1ccccc1,31.6 µM
8,Cc1ccc(S(=O)(=O)NNc2ccccc2)cc1,134 µM
9,CCCCCCCNC(=O)C1(CC2CC(c3ccc(Cl)cc3)=NO2)CCNCC1 (configuration not stated),39 µM
10,CCCCCNC(=O)c1cn(CC)c2cc(N3CCN(C)CC3)c(F)cc2c1=O,80.1 µM
11,COc1cc(/C=N/NC(=O)c2cncc(Br)c2)cc([N+](=O)[O-])c1O,< 0.23 µM
12,Cc1c(Cl)cccc1Nc1nc(NCCO)c2ccccc2n1,38.1 µM
13,COc1ccc(C(=O)CCN2CCc3cc(OC)c(OC)cc3C2)cc1,122 µM
14,C=CC1=C(C(=O)O)N2C(=O)[C@@H](NC(=O)/C(=N/OCC(=O)O)c3csc(N)n3)[C@H]2SC1,21 µM
15,O=[N+]([O-])c1ccc(/C=N/NC(=S)Nc2ccc(Cl)cc2Cl)s1,25 µM
16,O=C(NNC(=S)NC(=O)c1ccco1)c1ccc(F)cc1,96.8 µM
17,CCN(CC)C(=S)SSC(=S)N(CC)CC,21.8 µM
18,OC(CNCCc1ccc(C(F)(F)F)cc1)COC(c1ccccc1)c1ccccc1 (configuration not stated),82.9 µM
19,CN1C(=O)NC(c2cccc(O)c2)C(C(=O)c2cccs2)C1(O)C(F)(F)F (configuration not stated),40.6 µM

# Reference: PubChem BioAssay AID1985 (Southern Research Specialized Biocontainment Screening …, 2009)
